The test system of one series is A549 (lung cancer) cells. The series can be described thus: SRB cytotoxicity assay, A549. Type of series: cell-based. The conditions noted are these: Homo sapiens, A549; SRB assay, 48 h culture, mean ± SD, at least three independent experiments; compounds marked * : low solubility, real values might be lower; read-out: Cytotoxicity IC50, A549. As to the method: (§1) The antiproliferative activity was tested on human primary (SW480) and metastatic (SW620) colon cancer, human prostate cancer (PC3), human liver cancer (HepG2), human breast cancer (MDA), human lung cancer (A549), and human immortalized keratinocyte (HaCaT) cell lines obtained from the American Type Culture Collection (ATCC, Rockville, MD, USA). The cells were cultured in EMEM (SW480 and SW620), RPMI 1640 (PC3) or DMEM High Glucose (HepG2, MDA, A549, and HaCaT) with stable glutamine supplemented with 10% heat-inactivated fetal bovine serum (FBS), penicillin (100 U/mL), and streptomycin (100 µg/mL) in 37 °C and 5% CO2/95% air humified incubator. The cells were grown until 80–90% confluence and then were harvested with 0.25% trypsin and used for the experiments. All the reagents for the cell culture were provided by VWR Chemicals.
(§2) Cytotoxicity was tested with the sulforhodamine B (SRB) assay according to the National Cancer Institute protocol with slight modifications. Briefly, cells were seeded on a 96-well plate (5 × 10^3 cells per well). After 24 h incubation, zero-time control cells were fixed with TCA (final concentration 5%) for 1 h at 4 °C. […] The untreated cells were used as the control. After incubation, the cells were fixed with TCA (final concentration 5%) for 1 h at 4 °C, gently washed 4 times with tap water, and left for drying. The dried fixed cells were incubated with SRB solution (0.05% SRB in 1% acetic acid) for 30 min rt, washed four times with 1% acetic acid, and left for drying. The dried cells were dissolved in 10 mM Tris-base solution (pH 10.5) and the absorbance was read at 510 nm.
(§3) The cell viability was presented as a percent of SRB reduction in the treated cells versus that in control cells. The mean absorbance for control cells was assumed as 100%. No-cell control (blank well) absorbance was assumed as 0%, unless the compound was cytostatic, then 0% referred to zero-time control. The IC50 values were calculated using the GraphPad Prism 10.1.2 (324) (USA) software. The most cytotoxic compounds (8 and 20) were selected for further in vitro experiments.
For orientation: In SRB staining, fixed cells bind dye roughly in proportion to their protein.

In series [1] the test system is MDA (breast cancer) cells. The series can be described thus: SRB cytotoxicity assay, MDA. Type of series: cell-based. The note with it: Homo sapiens; SRB assay, 48 h culture, mean ± SD, at least three independent experiments; compounds marked * : low solubility, real values might be lower; read-out: Cytotoxicity IC50, MDA. As to the method: as §1, §2, §3
For series [2], the system named is six human cancer cell lines (SW480, SW620, PC3, HepG2, MDA, A549) and HaCaT. The series can be described thus: SRB cytotoxicity assay, whole panel. Type of series: cell-based. The note with it: for Cytotoxicity (in words): cell line panel; for IC50: Homo sapiens, depending on the compound and cell line, read-out: IC50 over the cell line panel. As to the method:
The antiproliferative properties of the studied combretastatin derivatives were tested on six human cancer cell lines, including primary colon (SW480), metastatic colon (SW620), prostate (PC3), liver (HepG2), breast (MDA), and lung (A549) cancer cells, and non-tumor human immortalized keratinocyte cell line (HaCaT) using the sulforhodamine B (SRB) assay. […] No selectivity was observed against the tumor cell lines when compared to that against the non-tumor cell line. Nevertheless, these values were much higher than the IC50 of the reference compounds (<0.2 μM).
as §1, §2, §3

The test system of series [3] is PC3 (prostate cancer) cells. The series can be described thus: SRB cytotoxicity assay, PC3. Type of series: cell-based. The note with it: Homo sapiens; SRB assay, 48 h culture, mean ± SD, at least three independent experiments; compounds marked * : low solubility, real values might be lower; read-out: Cytotoxicity IC50, PC3. As to the method:
as §1, §2, §3

For series [4], the system named is HepG2 (liver cancer) cells. The series can be described thus: SRB cytotoxicity assay, HepG2. Type of series: cell-based. The note with it: Homo sapiens, HepG2; SRB assay, 48 h culture, mean ± SD, at least three independent experiments; compounds marked * : low solubility, real values might be lower; read-out: Cytotoxicity IC50, HepG2. As to the method: as §1, §2, §3

Series [5] in a line: SRB cytotoxicity assay, HaCaT. The conditions noted are these: human, 48 h culture, mean ± SD, at least three independent experiments, compounds marked * : low solubility, real values might be lower. Type of series: cell-based. As for the experimental part:
as §1, §2, §3

Series [6] concerns SW620 (metastatic colon cancer) cells. The series can be described thus: SRB cytotoxicity assay, SW620. Type of series: cell-based. The note with it: Homo sapiens, SW-620; SRB assay, 48 h culture, mean ± SD, at least three independent experiments; compounds marked * : low solubility, real values might be lower; read-out: Cytotoxicity IC50, SW620. As to the method: as §1, §2, §3

For series [7], the system named is SW480 (primary colon cancer) cells. The series can be described thus: SRB cytotoxicity assay, SW480. Type of series: cell-based. The note with it: Homo sapiens, SW480; SRB assay, 48 h culture, mean ± SD, at least three independent experiments; compounds marked * : low solubility, real values might be lower; read-out: Cytotoxicity IC50, SW480. As for the experimental part:
as §1, §2, §3

Details of series [8]: method as in earlier work. The note with it: in contrast to the original compound; cited from earlier work.
A further series relates to HaCaT cells. The series can be described thus: Cell cycle analysis (PI, flow cytometry), HaCaT. Type of series: cell-based, human. The note with it: 24 h treatment; for Cell cycle phase arrest (ratio G2/M to G0/G1): 1.5 and 2 nM CA4, 25, 30, 40 mM 8, 15, 20, 30 mM 20. As to the method:
(§4) The cell cycle was assessed for the compounds 8 and 20 and the combretastatin CA4 as a reference compound. The compounds were most cytotoxic to the MDA and A549 cancerous cell lines; thus, these cell lines were selected for further analyses. The HaCaT cell line was chosen to represent non-cancer cells. For the experiment, the cells were seeded on 6-well plates (5 × 10^4 cells per well). After 24 h of incubation, the cells were treated with the compounds in selected concentrations (1.5 and 2 nM for CA4; […]) and incubated for the next 24 h. Then, the cells were detached with 0.25% trypsin, washed with 0.9% NaCl, and fixed with 70% ethanol at 4 °C for at least 16 h. For drying, the cells were washed twice with 0.9% NaCl, resuspended in 50 μg/mL propidium iodide (PI) and 100 μg/mL RNase in PBS and incubated for 30 min at 37 °C. The cell cycle distribution was analyzed by flow cytometer (FACS Verse, Becton, Dickinson and Company, Franklin Lakes, NJ, USA).
(In flow cytometry, cells or beads pass a laser one at a time.)

For the next series, the system named is tubulin. The series can be described thus: In vitro tubulin polymerization (turbidometry at 340 nm, BK004P kit). Type of series: biochemical, porcine. The conditions noted are these: for Concentration dependence of the acceleration of tubulin polymerization: 20 and 100 μM; for Effect on in vitro tubulin polymerization: 37 °C, 60 min, absorbance 340 nm, CA-4 5 μM, colchicine 5 μM, compounds 8 and 20 at 20 or 100 μM. As for the experimental part:
The kinetics of microtubule assembly was assessed by measuring absorbance at 340 nm over time.
The assembly of purified bovine tubulin was monitored using a BK004P kit, purchased from Cytoskeleton Inc. (Denver, CO, USA). The assay was performed according to the manufacturer’s instructions using the standard assay conditions. […] Light was scattered proportionally to the concentration of the polymerized microtubules in the assay. Then, the tubulin assembly was monitored by turbidometry at 340 nm in a MultiscanGo spectrophotometer (ThermoFisher Scientific, Carlsbad, CA, USA) for 60 min. The time dependence of the tubulin polymerization was presented in the form of graphs prepared in the GraphPad Prism 8.4.3.686 (Boston, MA, USA) software.

The next series concerns MDA cells. The series can be described thus: Cell cycle analysis (PI, flow cytometry), MDA. Type of series: cell-based, human. The note with it: 24 h treatment; for Cell cycle phase arrest (ratio G2/M to G0/G1): 1.5 and 2 nM CA4, 25, 30, 40 mM 8, 15, 20, 30 mM 20. As for the experimental part: as §4
The test system of another series is A549 cells. The series can be described thus: Cell cycle analysis (PI, flow cytometry), A549. Type of series: cell-based, human. The conditions noted are these: A549, 24 h treatment; for Cell cycle phase arrest (ratio G2/M to G0/G1): 1.5 and 2 nM CA4, 25, 30, 40 mM 8, 15, 20, 30 mM 20. As for the experimental part: as §4
The mark [9] stands for this setting: HaCaT immortalized keratinocyte cells (non-tumor cell line).

Molecules are shown by their SMILES.

Broadly, the IC50 is the concentration at which inhibition is half-maximal.

`COc1ccc(/C(=C\c2cc(OC)c(OC)c(OC)c2)C(=O)O)cc1Br` [Compound 3]: the half-inhibitory concentration (IC50) (with A549 (lung cancer) cells; in [1]; in series [3]; in series [4]; in [6]; in [7]) was > 100 µM in each case. The “Cytotoxicity (in words)” value in series [2] is “does not have any anticancer potential”. In addition, the half-inhibitory concentration (IC50) at 48 h in series [5] (setting [9]) was > 100 µM.

Turning to `CCCN(CCC)C(=O)/C(=C/c1cc(OC)c(OC)c(OC)c1)c1ccc(OC)c(Br)c1` [Compound 19], the IC50 (in the series on A549 (lung cancer) cells; in [1]; in series [3]; in series [4]; in series [6]; in [7]) was > 100 µM throughout. Moreover, in series [2], the “Cytotoxicity (in words)” value is recorded as “did not show any cytotoxicity”. Besides, the IC50 at 48 h in series [5] (setting [9]) is > 100 µM.

As to `COc1ccc(/C=C\c2cc(OC)c(OC)c(OC)c2)cc1OP(=O)(O)O` [Combretastatin A4 phosphate, combretastatin A-4 disodium phosphate], the Water solubility entry in [8] is on record as “water-soluble”.

For the molecule `COc1ccc(/C(=C\c2cc(OC)c(OC)c(OC)c2)C(=O)OCCCCBr)cc1Br` [Compound 8], the half-maximal inhibitory concentration (IC50) with A549 (lung cancer) cells was 19.6 ± 2 µM; in series [1], 23.1 ± 7.7 µM; in [2], 18.8 to 32.7 µM; in [3], 31 ± 5.5 µM; in series [4], 25.5 ± 6.3 µM; in [6], 24.2 ± 8.4 µM. For the same molecule, the concentration for half-maximal inhibition (IC50) in series [7] amounted to 32.7 ± 6.7 µM. Besides, the “DNA fragmentation (subG1 phase)” value is on record as “appearance of the subG1 phase was observed” in the series with HaCaT cells, “statistically significant differences between subG1 populations were observed” with MDA cells and “certain differences were noted” in the series on A549 cells. For the same molecule, the “Cell cycle phase arrest (ratio G2/M to G0/G1)” value in the series with HaCaT cells is listed as “G0/G1 phase arrest”; in the series with MDA cells, “not observed”; in the series on A549 cells, “G0/G1 phase arrest”. Besides, the “Concentration dependence of the acceleration of tubulin polymerization” value with tubulin is given as “concentration-dependent”. In addition, the “Effect on in vitro tubulin polymerization” value (from here on “Effect”) with tubulin is “enhanced tubulin polymerization”. The molecule also had an IC50 at 48 h in [5] (setting [9]) of 23.9 ± 3.9 µM.

With `CCCCN(CCCC)C(=O)/C(=C/c1cc(OC)c(OC)c(OC)c1)c1ccc(OC)c(Br)c1` [Compound 20], the IC50 was 19.4 ± 2.2 µM in the series on A549 (lung cancer) cells; 19 ± 7.1 µM in [1]; 18.8 to 32.7 µM in [2]; 23.7 ± 10.3 µM in series [3]; 25.8 ± 9.6 µM in series [4]; 20.9 ± 2.9 µM in series [6]. In addition, the IC50 in series [7] stood at 18.8 ± 0.8 µM. Moreover, the “DNA fragmentation (subG1 phase)” value is reported as “appearance of the subG1 phase was observed” in the series with HaCaT cells and “certain differences were noted” with A549 cells. For the same molecule, the “Cell cycle phase arrest (ratio G2/M to G0/G1)” value in the series with HaCaT cells, in the series on MDA cells and with A549 cells was “G0/G1 phase arrest” each time. For the same molecule, in the series on tubulin, the “Concentration dependence of the acceleration of tubulin polymerization” value was “on a similar level”. Besides, in the series on tubulin, the “Effect” value is listed as “enhanced tubulin polymerization”. Moreover, half-maximal inhibition in series [5] (setting [9]) (IC50 at 48 h) was put at 20.5 ± 9.7 µM.

With `COc1ccc(/C=C\c2cc(OC)c(OC)c(OC)c2)cc1O` [CA4, combretastatin A-4], the IC50 was 0.00343 ± 0.00096 µM in the series on A549 (lung cancer) cells; 0.00372 ± 0.00027 µM in [1]; 0.0021 ± 0.00026 µM in [3]; 0.00158 ± 0.00019 µM in series [4]; 0.00221 ± 0.00088 µM in [6]; 0.00281 ± 0.00017 µM in [7]. Besides, the “DNA fragmentation (subG1 phase)” value in the series on HaCaT cells is given as “appearance of the subG1 phase was observed”; with MDA cells it was “statistically significant differences between subG1 populations were observed”. Moreover, the “Cell cycle phase arrest (ratio G2/M to G0/G1)” value in the series on HaCaT cells is “G2 phase arrest”; with MDA cells, “no statistically significant differences”; with A549 cells it was “no statistically significant differences”. In addition, the “Effect” value with tubulin is given as “inhibited tubulin polymerization”. This molecule gave an IC50 at 48 h in series [5] (non-tumor cell line) of 0.00427 ± 0.00047 µM.

`COc1ccc(/C(=C\c2cc(OC)c(OC)c(OC)c2)C(=O)OCCCCCCBr)cc1Br` [Compound 9]: the IC50 (with A549 (lung cancer) cells; in series [1]; in [3]; in series [4]; in series [6]; in [7]) was > 100 µM each time. Further, the “Cytotoxicity (in words)” value in series [2] is given as “did not show any cytotoxicity”. Moreover, the IC50 at 48 h in series [5] (setting [9]) was > 100 µM.

The values above are taken from paper PMC11124394, “Novel Combretastatin A-4 Analogs—Design, Synthesis, and Antiproliferative and Anti-Tubulin Activity” (Molecules, 2024).
